Results taken from PubChem BioAssay AID330 (DTP/NCI, 2004).
Values joined by “and” are separate entries in the source; they are usually repeats but may differ in a detail not shown here. Equal entries are not always repeated. Toxic doses and inconclusive results are not listed. The calls were made as follows: active = survival T/C of 150% or more; inactive = T/C below 125% in these data.

Test system: P388 leukemia ip, CD2F1 mice, survival T/C
Experiment: NCI In Vivo Anticancer Drug Screen. Data for tumor model P388 Leukemia (intraperitoneal) in CD2F1 (CDF1) mice
Conditions: endpoint: median survival time, higher = longer survival
Procedure, shortened: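 Mice carrying the transplanted tumor received test compound or vehicle. Survival was recorded in each group, and the value is the treated-group measurement divided by that of the vehicle-treated control group.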

[1] = dose: 100.0 mg/kg/injection, schedule: Q04DX003 (ip), vehicle: saline with Tween-80
[2] = dose: 200.0 mg/kg/injection, schedule: Q04DX003 (ip), vehicle: saline with Tween-80
[3] = dose: 400.0 mg/kg/injection, schedule: Q04DX003 (ip), vehicle: saline with Tween-80
[4] = dose: 60.0 mg/kg/injection, schedule: Q01DX005 (ip), vehicle: saline with Tween-80
[5] = dose: 120.0 mg/kg/injection, schedule: Q01DX005 (ip), vehicle: saline with Tween-80
[6] = dose: 50.0 mg/kg/injection, schedule: Q01DX005 (ip), vehicle: Klucel (hydroxypropylcellulose) (HPC)
[7] = dose: 100.0 mg/kg/injection, schedule: Q01DX005 (ip), vehicle: Klucel (hydroxypropylcellulose) (HPC)
[8] = dose: 200.0 mg/kg/injection, schedule: Q01DX005 (ip), vehicle: Klucel (hydroxypropylcellulose) (HPC)
[9] = dose: 50.0 mg/kg/injection, schedule: Q01DX005 (ip), vehicle: saline with Tween-80
[10] = dose: 100.0 mg/kg/injection, schedule: Q01DX005 (ip), vehicle: saline with Tween-80
[11] = dose: 200.0 mg/kg/injection, schedule: Q01DX005 (ip), vehicle: saline with Tween-80
[12] = dose: 25.0 mg/kg/injection, schedule: Q01DX005 (ip), vehicle: Klucel (hydroxypropylcellulose) (HPC)

Measured: T/C

Cn1c(=O)c(Br)c(Br)c(=O)n1-c1ccc(Br)cc1
inactive: dose: 42.5 micrograms/kg/injection, schedule: Q01DX009 (ip), vehicle: Klucel (hydroxypropylcellulose) (HPC) 95 % of control | dose: 85.0 micrograms/kg/injection, schedule: Q01DX009 (ip), vehicle: Klucel (hydroxypropylcellulose) (HPC) 103 % of control | dose: 170.0 micrograms/kg/injection, schedule: Q01DX009 (ip), vehicle: Klucel (hydroxypropylcellulose) (HPC) 100 % of control

CCCCCCC(=O)/C=C/C=C/c1ccccc1
inactive: [1] 100 % of control | [2] 103 % of control | [3] 92 % of control

CON1C(=O)C(c2cccs2)=C2SCC=C21
inactive: dose: 15.0 mg/kg/injection, schedule: Q01DX005 (ip), vehicle: saline with Tween-80 107 % of control | dose: 30.0 mg/kg/injection, schedule: Q01DX005 (ip), vehicle: saline with Tween-80 112 % of control | [4] 112 % of control and 114 % of control | [5] 112 % of control

O=C(Nc1cccc(O)c1)C(Cl)=C(Cl)Cl
inactive: dose: 3.12 mg/kg/injection, schedule: Q01DX005 (ip), vehicle: DMSO 109 % of control | dose: 6.25 mg/kg/injection, schedule: Q01DX005 (ip), vehicle: DMSO 104 % of control | dose: 6.25 mg/kg/injection, schedule: Q01DX005 (ip), vehicle: saline with Tween-80 101 % of control | dose: 12.5 mg/kg/injection, schedule: Q01DX005 (ip), vehicle: DMSO 109 % of control | dose: 12.5 mg/kg/injection, schedule: Q01DX005 (ip), vehicle: saline with Tween-80 115 % of control | dose: 25.0 mg/kg/injection, schedule: Q01DX005 (ip), vehicle: DMSO 108 % of control | dose: 25.0 mg/kg/injection, schedule: Q01DX005 (ip), vehicle: saline with Tween-80 110 % of control | dose: 50.0 mg/kg/injection, schedule: Q01DX005 (ip), vehicle: DMSO 104 % of control

Cc1cccn2cnnc12
inactive: dose: 50.0 mg/kg/injection, schedule: Q01DX009 (ip), vehicle: saline 119 % of control | dose: 100.0 mg/kg/injection, schedule: Q01DX009 (ip), vehicle: saline 119 % of control | dose: 200.0 mg/kg/injection, schedule: Q01DX009 (ip), vehicle: saline 117 % of control

Cc1cc(=O)n2c(-c3ccccc3)csc2n1
inactive: dose: 100.0 mg/kg/injection, schedule: Q04DX003 (ip), vehicle: Klucel (hydroxypropylcellulose) (HPC) 101 % of control | dose: 200.0 mg/kg/injection, schedule: Q04DX003 (ip), vehicle: Klucel (hydroxypropylcellulose) (HPC) 110 % of control | dose: 400.0 mg/kg/injection, schedule: Q04DX003 (ip), vehicle: Klucel (hydroxypropylcellulose) (HPC) 113 % of control

COc1ccc2nc3cc(Cl)ccc3c(NCCOCCO)c2c1
inactive: dose: 50.0 mg/kg/injection, schedule: Q01DX009 (ip), vehicle: saline with Tween-80 101 % of control | dose: 100.0 mg/kg/injection, schedule: Q01DX009 (ip), vehicle: saline with Tween-80 109 % of control

O=C1c2ccccc2C(=O)c2c1ccc1c2[nH]c2cc(Cl)c(Cl)cc21
inactive: dose: 50.0 mg/kg/injection, schedule: Q01DX005 (ip), vehicle: Klucel + Tween-80 98 % of control | dose: 100.0 mg/kg/injection, schedule: Q01DX005 (ip), vehicle: Klucel + Tween-80 91 % of control | dose: 200.0 mg/kg/injection, schedule: Q01DX005 (ip), vehicle: Klucel + Tween-80 98 % of control

CC(=O)N(CCCCCCN(C(C)=O)C(C)=O)C(C)=O
inactive: [6] 96 % of control | [7] 105 % of control | [8] 92 % of control | dose: 400.0 mg/kg/injection, schedule: Q01DX005 (ip), vehicle: Klucel (hydroxypropylcellulose) (HPC) 94 % of control

CSc1cccc(NC(=O)OCCOc2ccc(Cl)c(C)c2)c1
inactive: dose: 50.0 mg/kg/injection, schedule: Q01DX009 (ip), vehicle: Klucel (hydroxypropylcellulose) (HPC) 92 % of control | dose: 100.0 mg/kg/injection, schedule: Q01DX009 (ip), vehicle: Klucel (hydroxypropylcellulose) (HPC) 97 % of control | dose: 200.0 mg/kg/injection, schedule: Q01DX009 (ip), vehicle: Klucel (hydroxypropylcellulose) (HPC) 92 % of control

C=C=C(C)CN(CC)CC
inactive: dose: 50.0 mg/kg/injection, schedule: Q01DX005 (ip), vehicle: saline 108 % of control | dose: 100.0 mg/kg/injection, schedule: Q01DX005 (ip), vehicle: saline 107 % of control | dose: 200.0 mg/kg/injection, schedule: Q01DX005 (ip), vehicle: saline 108 % of control

Cc1ccc(Sc2ccc3ccccc3n2)cc1
inactive: [9] 90 % of control | [10] 101 % of control | [11] 104 % of control

Oc1[nH]c2ccccc2c1N=Nc1nnc(-c2ccccc2)c(-c2ccccc2)n1
inactive: [9] 95 % of control | [10] 107 % of control | [11] 101 % of control

Cc1cc(/C=C2/OC(=O)c3ccccc32)cc(C)c1O
inactive: dose: 100.0 mg/kg/injection, schedule: Q04DX002 (ip), vehicle: saline 94 % of control | dose: 200.0 mg/kg/injection, schedule: Q04DX002 (ip), vehicle: saline 97 % of control | dose: 400.0 mg/kg/injection, schedule: Q04DX002 (ip), vehicle: saline 97 % of control

FC(F)(F)C(F)(F)C(F)(F)C(F)(F)C(F)(F)C(F)(F)C[CH2][Sn]([Cl])([Cl])[CH2]CC(F)(F)C(F)(F)C(F)(F)C(F)(F)C(F)(F)C(F)(F)F
inactive: [4] 118 % of control | [5] 119 % of control

Cc1cc2c(c3c1C(C)CCC3=O)C(C)(C)CC2(C)C (stereo not given)
inactive: dose: 50.0 mg/kg/injection, schedule: Q01DX005 (ip), vehicle: saline + Tween-80 + alcohol 101 % of control | dose: 100.0 mg/kg/injection, schedule: Q01DX005 (ip), vehicle: saline + Tween-80 + alcohol 108 % of control | dose: 200.0 mg/kg/injection, schedule: Q01DX005 (ip), vehicle: saline + Tween-80 + alcohol 104 % of control

CCCCCCC1NC1Cc1ccccc1 (stereo not given)
inactive: dose: 4.5 mg/kg/injection, schedule: Q01DX009 (ip), vehicle: saline with Tween-80 115 % of control | dose: 9.0 mg/kg/injection, schedule: Q01DX009 (ip), vehicle: saline with Tween-80 111 % of control | dose: 18.0 mg/kg/injection, schedule: Q01DX009 (ip), vehicle: saline with Tween-80 110 % of control

Nc1nc2[nH]c(=S)[nH]c2c(=O)[nH]1
inactive: [9] 92 % of control | [10] 92 % of control | [11] 95 % of control

C=C1C(=O)[C@@]23CC1C(O)[C@@H](OC(C)=O)[C@@H]2C1(C)C(OC(C)=O)C[C@@H](OC(C)=O)C(C)(C)[C@@H]1C[C@H]3OC(C)=O (stereo not given in full)
inactive: [12] 102 % of control | [6] 117 % of control

O=C(c1ccccc1)N(C(=S)N(C(=O)c1ccccc1)c1ccccc1)c1ccccc1
inactive: [4] 100 % of control | [5] 91 % of control | dose: 240.0 mg/kg/injection, schedule: Q01DX005 (ip), vehicle: saline with Tween-80 95 % of control

CCC(CC)C(Nc1nncs1)Nc1nncs1
inactive: [9] 90 % of control | [10] 112 % of control | [11] 116 % of control

O=C1c2ccccc2C(=O)N1Cc1ccccc1
inactive: [1] 104 % of control | [2] 95 % of control | [3] 100 % of control

COc1c(Br)c2c(c([N+](=O)[O-])c1OC)C(=O)OC2
inactive: [12] 103 % of control | [6] 96 % of control | [7] 96 % of control | [8] 104 % of control

COc1c(Br)cnc2ccccc12
inactive: dose: 12.5 mg/kg/injection, schedule: Q01DX009 (ip), vehicle: distilled water + Tween-80 96 % of control | dose: 25.0 mg/kg/injection, schedule: Q01DX009 (ip), vehicle: distilled water + Tween-80 96 % of control | dose: 50.0 mg/kg/injection, schedule: Q01DX009 (ip), vehicle: distilled water + Tween-80 102 % of control | dose: 100.0 mg/kg/injection, schedule: Q01DX009 (ip), vehicle: distilled water + Tween-80 102 % of control | dose: 200.0 mg/kg/injection, schedule: Q01DX009 (ip), vehicle: distilled water + Tween-80 93 % of control

COc1ccc2ncc(COC(=O)Nc3ccccc3)c(COC(=O)Nc3ccccc3)c2c1
inactive: dose: 12.5 mg/kg/injection, schedule: Q01DX005 (ip), vehicle: Klucel (hydroxypropylcellulose) (HPC) 102 % of control and 106 % of control | [12] 100 % of control and 94 % of control | [6] 100 % of control and 95 % of control and 97 % of control

O=S(=O)(O)C(O)c1ccc(Cl)cc1Cl (stereo not given)
inactive: dose: 50.0 mg/kg/injection, schedule: Q01DX001 (ip), vehicle: Klucel (hydroxypropylcellulose) (HPC) 100 % of control | dose: 100.0 mg/kg/injection, schedule: Q01DX001 (ip), vehicle: Klucel (hydroxypropylcellulose) (HPC) 100 % of control | dose: 200.0 mg/kg/injection, schedule: Q01DX001 (ip), vehicle: Klucel (hydroxypropylcellulose) (HPC) 116 % of control
